Tests used:
[1] = test system: cell-surface Mac-1 adhesion to immobilized fibrinogen (HL-60 cells); assay: Mac-1/Fibrinogen cell-based screening assay; parameters: species or system human; conditions: Homo sapiens, HL-60, HL-60 cells; read-out: Mac-1/Fgn Cell based Assay IC50
Description: Cellular Mac-1/Fibrinogen antagonist activity, defined as the ability to inhibit cell-surface Mac-1 adhesion to immobilized fibrinogen, was quantitated by a cell based assay. Human fibrinogen was coated onto 96 well microtiter plates (1 μg in 100 μL TBS) overnight at 4° C. The plates were then blocked with 150 μL of 10% polyvinyl pyrrolidone (PVP) in TBS for 1 h at 37° C. Plates were washed 3 times (150 μL each) with TBS. […] A ten-fold excess of volume of the same buffer was added and cells were centrifuged. The medium was decanted and cells were resuspended at a concentration of 2×10^6 cells/mL in RPMI/0.05% BSA/0.2 mM MnCl2. Stock solutions (10 mM in DMSO) of test compounds were diluted to 2.5 mM with DMSO. […] Each sample was further diluted 50-fold with RPMI/0.05% BSA/0.2 mM MnCl2. Equal volumes of labeled cells were then added to assay tubes containing diluted compounds. […] Cells were incubated for 10 min at 37° C. with gentle shaking, then dispensed (100 μL per well) onto fibrinogen coated plates and incubated for 30 min at 37° C./5% CO2. Unbound cells were gently washed with TBS two times.

[2] = biological target: T1, LFA-1 binding to immobilized ICAM-1 (Homo sapiens, UniProt P05107+P20701); assay: LFA-1/ICAM-1 protein-protein assay (solid-phase ELISA); conditions: read-out: LFA-1/ICAM-1 Protein-Protein Assay IC50
T1 construct: made in house; host or cells: transfected 293 cells (LFA-1)
Description: (a) LFA-1/ICAM-1 screening test: LFA-1/ICAM-1 antagonist activity, defined as the ability of compounds of the invention to block LFA-1 binding to immobilized ICAM-1, was quantitated using a solid-phase ELISA.
(§1) Typically, fusion protein consisting of the entire extracellular domain of human ICAM-1 and the Fc domain of human IgG (5dICAM-Ig) was coated onto 96-well microtiter plates (0.15 μg in 100 μL PBS) overnight at 4° C. The plates were then blocked with 150 μL of 1% BSA/1 mM MnCl2/0.14 M NaCl/20 mM HEPES, pH 7.2 for 1 h at 37° C. and washed 3 times (150 μL each) with Wash Buffer (50 mM Tris, pH 7.4/100 mM NaCl/1 mM MnCl2/0.05% Tween 20). Stock solutions (100 μM in 100% DMSO) of test compounds were diluted 50 fold with 150 μL of Binding Buffer (0.05% BSA/0.05% Tween 20/1 mM MnCl2/0.14 M NaCl/20 mM HEPES, pH 7.2) plus 10% DMSO. […] Fifty μL per well of each dilution was added to the ICAM-1 coated plates, followed by 50 μL per well of membrane-bound LFA-1 (280 ng/mL in Binding Buffer) derived from transfected 293 cells. The plates were shaken vigorously for 1 min (room temperature) and gently for 2 h (37° C.). After incubation, the plates were washed 3 times (150 μL each) with Wash Buffer. Mouse anti-human integrin β2 monoclonal antibody was added (100 μL/well, 1 μg/mL in Binding Buffer) and allowed to incubate for 1 h (37° C.) with gentle agitation. The plates were then washed 3 times with Wash Buffer. HRP-conjugated goat anti-mouse IgG (100 μL/well, 1:1500 dilution in Binding Buffer) was added to each well, followed by incubation for 1 h (37° C.), and concluded by three washes (150 μL each) with Wash Buffer. TMB solution (100 μL per well) was added for color development (10 min). The reaction was stopped by the addition of 100 μL of 1 M H3PO4 to each well. The plates were then read at 450 nm. The inhibitory activities of test compounds were determined by the IC50s.
as §1, with “LFA-1/ICAM-1 antagonist activity, defined as the ability to block LFA-1 binding to immobilized ICAM-1, was quantitated using a solid-phase ELISA. Typically,” for “Typically,”, “(0.05 %” for “(0.05%”, “nm.” for “nm. The inhibitory activities of test compounds were determined by the IC50s.”

[3] = biological target: T2, ICAM-1 binding to immobilized Mac-1 (Homo sapiens, UniProt P05107+P11215); assay: Mac-1/ICAM-1 screening assay (solid-phase ELISA); conditions: read-out: Mac-1/ICAM-1 Protein-Protein Assay IC50
T2 construct: made in house; host or cells: transfected 293 cells (Mac-1)
Description: (b) Mac-1/ICAM-1 screening test: Mac-1/ICAM-1 antagonist activity, defined as the ability to compete with ICAM-1 binding to immobilized Mac-1, was quantitated by a solid-phase ELISA.
(§2) Membrane-bound Mac-1 derived from transfected 293 cells was coated onto 96-well microtiter plates (50 μL/well, 3 μg/mL Mac-1 in 20 mM Hepes, pH 7.2/0.14 M NaCl/1 mM MnCl2) overnight at 4° C. The plates were blocked with 100 μL/well of 0.5% BSA in 20 mM Hepes, pH 7.2/0.14 M NaCl/1 mM MnCl2 at 37° C. for 1 h and washed 3 times (120 μL each) with Binding Buffer (20 mM Hepes, pH 7.2/0.14 M NaCl/1 mM MnCl2/0.05% Tween 20). Test compounds were dissolved in 100% DMSO and diluted 1:50 in Binding Buffer plus 10% DMSO. A series of 1:4 dilutions were performed for each compound (concentration range, 0.12 nM-20 μM). Each dilution (25 μL/well) was added to the plates, followed by 25 μL/well of 5 dICAM-Ig (40 μg/mL in Binding Buffer). The plates were shaken vigorously for 1 min (room temperature), followed by gentle agitation for 2 h (37° C.), and washed with Binding Buffer (3 times, 120 μL each). HRP-conjugated goat anti-human IgG(Fc-specific) antibody (0.125 μg/mL in Binding Buffer plus 0.05% BSA) was added to each well (50 μL/well), followed by incubation for 1 h at 37° C. The plates were then washed 3 times with Binding Buffer (120 μL each). TMB solution (100 μL/well) was added to each well for color development for 10 min. The reaction was stopped with 1 M H3PO4 (100 μL/well) and the plates were read at 450 nm. The inhibitory activities of test compounds were determined by the IC50s.
as §2, with “Mac-1/ICAM-1 antagonist activity, defined as the ability to compete with ICAM-1 binding to immobilized Mac-1, was quantitated by a solid-phase ELISA. Membrane-bound” for “Membrane-bound”, “5dICAM-Ig” for “5 dICAM-Ig”, “nm.” for “nm. The inhibitory activities of test compounds were determined by the IC50s.”

T2 sequence (P05107 23-769, other chains not shown): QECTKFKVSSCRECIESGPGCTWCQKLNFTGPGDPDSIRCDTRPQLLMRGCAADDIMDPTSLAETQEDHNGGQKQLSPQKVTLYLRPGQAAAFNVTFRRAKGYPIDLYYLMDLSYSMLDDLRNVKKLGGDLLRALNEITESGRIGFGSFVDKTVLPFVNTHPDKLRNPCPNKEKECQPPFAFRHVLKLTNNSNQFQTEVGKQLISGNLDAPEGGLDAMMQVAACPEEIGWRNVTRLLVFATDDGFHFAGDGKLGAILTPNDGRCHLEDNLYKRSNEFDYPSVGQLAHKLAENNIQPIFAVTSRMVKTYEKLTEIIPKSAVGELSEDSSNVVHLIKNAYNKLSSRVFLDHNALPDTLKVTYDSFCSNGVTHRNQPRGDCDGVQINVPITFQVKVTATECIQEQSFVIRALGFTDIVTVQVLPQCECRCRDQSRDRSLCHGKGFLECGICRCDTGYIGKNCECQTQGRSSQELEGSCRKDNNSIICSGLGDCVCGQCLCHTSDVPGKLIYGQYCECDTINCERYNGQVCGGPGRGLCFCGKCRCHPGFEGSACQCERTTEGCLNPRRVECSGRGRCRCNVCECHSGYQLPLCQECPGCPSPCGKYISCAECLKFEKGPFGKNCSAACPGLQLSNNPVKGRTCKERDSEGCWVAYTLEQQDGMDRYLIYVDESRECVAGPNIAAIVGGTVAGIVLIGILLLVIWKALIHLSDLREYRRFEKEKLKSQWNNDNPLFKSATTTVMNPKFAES
T1 sequence (P20701 26-1170): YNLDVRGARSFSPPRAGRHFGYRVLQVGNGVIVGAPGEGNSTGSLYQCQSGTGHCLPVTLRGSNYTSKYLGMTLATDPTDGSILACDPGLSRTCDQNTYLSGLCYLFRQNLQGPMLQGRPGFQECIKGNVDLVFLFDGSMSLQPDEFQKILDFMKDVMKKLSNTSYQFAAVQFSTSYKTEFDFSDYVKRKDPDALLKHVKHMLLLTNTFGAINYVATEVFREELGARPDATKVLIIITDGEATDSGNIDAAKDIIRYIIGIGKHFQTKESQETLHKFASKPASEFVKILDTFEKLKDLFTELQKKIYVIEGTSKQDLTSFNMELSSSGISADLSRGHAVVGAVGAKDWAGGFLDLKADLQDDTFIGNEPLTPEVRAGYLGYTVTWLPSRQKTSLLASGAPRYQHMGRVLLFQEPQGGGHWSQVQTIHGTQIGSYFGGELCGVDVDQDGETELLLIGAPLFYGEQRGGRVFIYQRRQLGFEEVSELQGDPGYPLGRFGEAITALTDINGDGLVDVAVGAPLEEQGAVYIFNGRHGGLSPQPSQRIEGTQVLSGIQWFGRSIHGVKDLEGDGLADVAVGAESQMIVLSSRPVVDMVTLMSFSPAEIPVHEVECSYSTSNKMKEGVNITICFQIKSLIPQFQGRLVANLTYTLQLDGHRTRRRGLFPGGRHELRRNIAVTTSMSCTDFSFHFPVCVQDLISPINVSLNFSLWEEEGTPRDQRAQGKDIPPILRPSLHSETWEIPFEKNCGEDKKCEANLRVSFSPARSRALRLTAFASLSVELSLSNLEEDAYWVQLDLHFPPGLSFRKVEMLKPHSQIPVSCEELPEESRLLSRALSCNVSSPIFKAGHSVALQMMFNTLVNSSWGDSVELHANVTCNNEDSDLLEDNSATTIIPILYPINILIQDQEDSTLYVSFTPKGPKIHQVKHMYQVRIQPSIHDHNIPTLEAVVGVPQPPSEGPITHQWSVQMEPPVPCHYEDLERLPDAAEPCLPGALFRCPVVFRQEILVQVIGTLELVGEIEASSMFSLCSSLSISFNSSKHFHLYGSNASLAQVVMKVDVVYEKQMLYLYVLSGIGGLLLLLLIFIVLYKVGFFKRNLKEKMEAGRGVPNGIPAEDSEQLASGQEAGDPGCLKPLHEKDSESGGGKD
T1 sequence (P05107 23-769): as the sequence (P05107 23-769, other chains not shown) above

Row | IC50 [1] | IC50 [2] | IC50 [3] | SMILES
1 | 1220 nM |  |  | O=C(NCc1cccc(O)c1)c1ccc(C(=O)N[C@@H](CNC(=O)c2cc([N+](=O)[O-])[nH]n2)C(=O)O)c(Cl)c1 [Example 152]
2 |  | 7 nM | 538 nM | O=C(NCc1cccc(O)c1)c1ccc(C(=O)N[C@@H](CNC(=O)c2c[nH]c(=O)[nH]c2=O)C(=O)O)c(Cl)c1 [Example 172]
3 |  | 0.6 nM | 36 nM | O=C(NCc1cccc(O)c1)c1ccc(C(=O)N[C@@H](CNC(=O)c2cc(=O)[nH]c(=O)[nH]2)C(=O)O)c(Cl)c1 [Example 173]
4 |  | 3.4 nM | 91 nM | O=C(NCc1cccc(O)c1)c1ccc(C(=O)N[C@@H](CNC(=O)c2cc3ccccc3o2)C(=O)O)c(Cl)c1 [Example 174]
5 |  | 1.2 nM | 54 nM | O=C(NCc1cccc(O)c1)c1ccc(C(=O)N[C@@H](CNC(=O)c2ccc3[nH]cnc3c2)C(=O)O)c(Cl)c1 [Example 176]
6 |  | 0.6 nM | 48 nM | O=C(NCc1cccc(O)c1)c1ccc(C(=O)N[C@@H](CNC(=O)c2nccc3ccccc23)C(=O)O)c(Cl)c1 [Example 180]
7 |  | 12 nM | 176 nM | O=C(NCc1cccc(O)c1)c1ccc(C(=O)N[C@@H](CNC(=O)c2ccc3ccccc3n2)C(=O)O)c(Cl)c1 [Example 181]
8 |  | 2.5 nM | 91 nM | O=C(NCc1cccc(O)c1)c1ccc(C(=O)N[C@@H](CNC(=O)c2ccnc3ccccc23)C(=O)O)c(Cl)c1 [Example 184]
9 |  | 1.3 nM | 187 nM | O=C(NCc1cccc(O)c1)c1ccc(C(=O)N[C@@H](CNC(=O)c2cnnc3ccccc23)C(=O)O)c(Cl)c1 [Example 185]
10 |  | 1.6 nM | 167 nM | O=C(NCc1cccc(O)c1)c1ccc(C(=O)N[C@@H](CNC(=O)c2nc3ccccc3nc2O)C(=O)O)c(Cl)c1 [Example 186]
11 |  | 3.4 nM | 146 nM | O=C(NCc1cccc(O)c1)c1ccc(C(=O)N[C@@H](CNC(=O)c2cc3ccccc3oc2=O)C(=O)O)c(Cl)c1 [Example 188]
12 |  | 18 nM | 1050 nM | O=C(NCc1cccc(O)c1)c1ccc(C(=O)N[C@@H](CNC(=O)c2c3ccccc3cc3ccccc23)C(=O)O)c(Cl)c1 [Example 189]
13 |  | 2.2 nM | 130 nM | COc1ccc2nc3ccc(C(=O)NC[C@H](NC(=O)c4ccc(C(=O)NCc5cccc(O)c5)cc4Cl)C(=O)O)cn3c(=O)c2c1 [Example 191]
14 |  | 14 nM | 304 nM | O=C(NC[C@H](NC(=O)c1c(F)cccc1Cl)C(=O)O)c1ccccc1 [Example 220]
15 |  | 37 nM | 152 nM | O=C(COc1ccccc1)c1ccc(C(=O)N[C@@H](CNC(=O)c2cccs2)C(=O)O)c(Cl)c1 [Example 376, N-[2-chloro-4-(phenoxyacetyl)benzoyl]-3-(thiophene-2-carbonyl)amino-L-alanine]
